Measurements as given in patent US12077503B2, “Substituted cyclic amides and their use as herbicides” (FMC CORPORATION, priority 2015, dated 2024).

Columns and labels:
Format in all cases: in vivo
[1] = test system: pigweed (Amaranthus retroflexus); test: Test A preemergence; details: Preemergence; for Plant response rating, Pigweed: 125 g ai/ha, visual injury after approximately 10 d, 0 to 100 scale where 0 is no effect and 100 is complete control; for Pigweed plant response rating (0 to 100 scale, 0 is no effect, 100 is complete control): 500 g ai/ha, visual injury approx. 10 d
Text: (§1) Seeds of plant species selected from barnyardgrass (Echinochloa crus-galli), Kochia (Kochia scoparia), ragweed (common ragweed, Ambrosia elatior), ryegrass, Italian (Italian ryegrass, Lolium multiflorum), crabgrass, large (Digitaria sanguinalis), giant foxtail (Setaria faberii), green foxtail (Setaria viridis), morningglory (Ipomoea spp.), pigweed (Amaranthus retroflexus), velvetleaf (Abutilon theophrasti), wheat (Triticum aestivum), and corn (Zea mays) were planted into a blend of loam soil and sand and treated preemergence with a directed soil spray using test chemicals formulated in anon-phytotoxic solvent mixture which included a surfactant.
(§2) At the same time, plants selected from these crop and weed species and also blackgrass (Alopecurus myosuroides), and Galium (catchweed bedstraw, Galium aparine) were planted in pots containing the same blend of loam soil and sand and treated with postemergence applications of test chemicals formulated in the same manner. Plants ranged in height from 2 to 10 cm and were in the one- to two-leaf stage for the postemergence treatment. Treated plants and untreated controls were maintained in a greenhouse for approximately 10 d, after which time all treated plants were compared to untreated controls and visually evaluated for injury. Plant response ratings, summarized in Table A, are based on a 0 to 100 scale where 0 is no effect and 100 is complete control. A dash (-) response means no test result.

[2] = test system: ryegrass, Italian (Italian ryegrass, Lolium multiflorum); test: Test A preemergence; details: Preemergence; for Plant response rating, Ryegrass, Italian: 125 g ai/ha, visual injury after approximately 10 d, 0 to 100 scale where 0 is no effect and 100 is complete control; for Ryegrass, Italian plant response rating (0 to 100 scale, 0 is no effect, 100 is complete control): 500 g ai/ha, visual injury approx. 10 d
Text: as §1, §2

[3] = test system: ragweed (common ragweed, Ambrosia elatior); test: Test A preemergence; details: Preemergence; for Plant response rating, Ragweed: 125 g ai/ha, visual injury after approximately 10 d, 0 to 100 scale where 0 is no effect and 100 is complete control; for Ragweed plant response rating (0 to 100 scale, 0 is no effect, 100 is complete control): 500 g ai/ha, visual injury approx. 10 d
Text: as §1, §2

[4] = test system: Kochia (Kochia scoparia); test: Test A preemergence; details: Preemergence; for Plant response rating, Kochia: 125 g ai/ha, visual injury after approximately 10 d, 0 to 100 scale where 0 is no effect and 100 is complete control; for Kochia plant response rating (0 to 100 scale, 0 is no effect, 100 is complete control): 500 g ai/ha, visual injury approx. 10 d
Text: as §1, §2

[5] = test system: giant foxtail (Setaria faberii); test: Test A preemergence; details: Preemergence; for Plant response rating, Foxtail, Giant: 125 g ai/ha, visual injury after approximately 10 d, 0 to 100 scale where 0 is no effect and 100 is complete control; for Foxtail, Giant plant response rating (0 to 100 scale, 0 is no effect, 100 is complete control): 500 g ai/ha, visual injury approx. 10 d
Text: as §1, §2

[6] = test system: barnyardgrass (Echinochloa crus-galli); test: Test A preemergence; details: Preemergence; for Plant response rating, Barnyardgrass: 125 g ai/ha, visual injury after approximately 10 d, 0 to 100 scale where 0 is no effect and 100 is complete control; for Barnyardgrass plant response rating (0 to 100 scale, 0 is no effect, 100 is complete control): 500 g ai/ha, visual injury approx. 10 d
Text: as §1, §2

[7] = test system: pigweed (Amaranthus retroflexus); test: Test A postemergence
Text: as §1, §2

[8] = test system: ryegrass, Italian (Italian ryegrass, Lolium multiflorum); test: Test A postemergence
Text: as §1, §2

[9] = test system: ragweed (common ragweed, Ambrosia elatior); test: Test A postemergence
Text: as §1, §2

[10] = test system: corn (Zea mays); test: Test A postemergence
Text: as §1, §2

[11] = test system: Galium (catchweed bedstraw, Galium aparine); test: Test A postemergence
Text: as §1, §2

[12] = test system: wheat (Triticum aestivum); test: Test A postemergence
Text: as §1, §2

[13] = test system: Kochia (Kochia scoparia); test: Test A postemergence
Text: as §1, §2

[14] = test system: blackgrass (Alopecurus myosuroides); test: Test A postemergence
Text: as §1, §2

[15] = test system: giant foxtail (Setaria faberii); test: Test A postemergence
Text: as §1, §2

[16] = test system: barnyardgrass (Echinochloa crus-galli); test: Test A postemergence
Text: as §1, §2

[17] = 125 g ai/ha, postemergence, visual rating after approx. 10 d, 0 to 100 scale (0 no effect, 100 complete control)
[18] = Postemergence, 500 g ai/ha, 0 to 100 scale where 0 is no effect and 100 is complete control

SMILES | Plant response rating, Pigweed [1] | Pigweed plant response rating (0 to 100 scale, 0 is no effect, 100 is complete control) [1] | Plant response rating, Ryegrass, Italian [2] | Ryegrass, Italian plant response rating (0 to 100 scale, 0 is no effect, 100 is complete control) [2] | Plant response rating, Ragweed [3] | Ragweed plant response rating (0 to 100 scale, 0 is no effect, 100 is complete control) [3] | Plant response rating, Kochia [4] | Kochia plant response rating (0 to 100 scale, 0 is no effect, 100 is complete control) [4] | Plant response rating, Foxtail, Giant [5] | Foxtail, Giant plant response rating (0 to 100 scale, 0 is no effect, 100 is complete control) [5] | Plant response rating, Barnyardgrass [6] | Barnyardgrass plant response rating (0 to 100 scale, 0 is no effect, 100 is complete control) [6] | Plant response rating, Pigweed [7, 17] | Plant response rating, Pigweed [7, 18] | Plant response rating, Ryegrass, Italian [8, 17] | Plant response rating, Ryegrass, Italian [8, 18] | Plant response rating, Ragweed [9, 17] | Plant response rating, Ragweed [9, 18] | Plant response rating, Corn [10, 17] | Plant response rating, Corn [10, 18] | also measured
Cc1ccc(C2CN(C)C(=O)C2C(=O)Nc2ccccc2F)c(F)c1 (stereo not shown) [Compound 560] | 0 | 40 | 0 | 70 | 0 | 0 | 60 | 80 | 100 | 100 | 90 | 100 | 0 | 20 | 0 | 60 | 0 | 20 | 0 | 30 | Plant response rating, Galium [11, 17]: 40; Plant response rating, Galium [11, 18]: 60; Plant response rating, Wheat [12, 17]: 0; Plant response rating, Wheat [12, 18]: 50; Plant response rating, Kochia [13, 17]: 40; Plant response rating, Kochia [13, 18]: 80; Plant response rating, Blackgrass [14, 17]: 30; Plant response rating, Blackgrass [14, 18]: 50; Plant response rating, Foxtail, Giant [15, 17]: 90; Plant response rating, Foxtail, Giant [15, 18]: 90; Plant response rating, Barnyardgrass [16, 17]: 90; Plant response rating, Barnyardgrass [16, 18]: 100
O=C1NCC(c2ccc(OC(F)F)cc2)C1C(=O)Nc1cccc(F)c1F (stereo not shown) [Compound 561] | 80 | 90 | 0 | 40 | 80 | 80 | 70 | 90 | 90 | 90 | 90 | 90 | 60 | 70 | 20 | 60 | 20 | 40 | 10 | 60 | Plant response rating, Galium [11, 17]: 60; Plant response rating, Galium [11, 18]: 60; Plant response rating, Wheat [12, 17]: 30; Plant response rating, Wheat [12, 18]: 70; Plant response rating, Kochia [13, 17]: 70; Plant response rating, Kochia [13, 18]: 80; Plant response rating, Blackgrass [14, 17]: 50; Plant response rating, Blackgrass [14, 18]: 70; Plant response rating, Foxtail, Giant [15, 17]: 90; Plant response rating, Foxtail, Giant [15, 18]: 90; Plant response rating, Barnyardgrass [16, 17]: 90; Plant response rating, Barnyardgrass [16, 18]: 90
CN1CC(c2ccc(OC(F)F)cc2)C(C(=O)Nc2cccc(F)c2F)C1=O (stereo not shown) [Compound 562] | 90 | 90 | 60 | 90 | 70 | 80 | 70 | 90 | 90 | 90 | 90 | 90 | 70 | 80 | 70 | 80 | 50 | 60 | 40 | 80 | Plant response rating, Galium [11, 17]: 60; Plant response rating, Galium [11, 18]: 70; Plant response rating, Wheat [12, 17]: 50; Plant response rating, Wheat [12, 18]: 80; Plant response rating, Kochia [13, 17]: 70; Plant response rating, Kochia [13, 18]: 80; Plant response rating, Blackgrass [14, 17]: 60; Plant response rating, Blackgrass [14, 18]: 70; Plant response rating, Foxtail, Giant [15, 17]: 90; Plant response rating, Foxtail, Giant [15, 18]: 90; Plant response rating, Barnyardgrass [16, 17]: 90; Plant response rating, Barnyardgrass [16, 18]: 90
CN1CC(c2ccc(Br)cc2)C(C(=O)Nc2ccccc2F)C1=O (stereo not shown) [Compound 563] | 70 | 80 | 0 | 0 | 50 | 60 | 70 | 80 | 90 | 100 | 90 | 100 | 0 | 40 | 40 | 40 | 0 | 50 | 20 | 50 | Plant response rating, Galium [11, 17]: 70; Plant response rating, Galium [11, 18]: 70; Plant response rating, Wheat [12, 17]: 20; Plant response rating, Wheat [12, 18]: 40; Plant response rating, Kochia [13, 17]: 70; Plant response rating, Kochia [13, 18]: 80; Plant response rating, Blackgrass [14, 17]: 40; Plant response rating, Blackgrass [14, 18]: 50; Plant response rating, Foxtail, Giant [15, 17]: 90; Plant response rating, Foxtail, Giant [15, 18]: 90; Plant response rating, Barnyardgrass [16, 17]: 90; Plant response rating, Barnyardgrass [16, 18]: 90
CN1CC(c2ccc(Br)cc2)C(C(=O)Nc2cccc(F)c2F)C1=O (stereo not shown) [Compound 564] | 90 | 90 | 40 | 90 | 80 | 90 | 80 | 90 | 90 | 100 | 90 | 100 | 40 | 70 | 60 | 70 | 50 | 60 | 70 | 80 | Plant response rating, Galium [11, 17]: 70; Plant response rating, Galium [11, 18]: 70; Plant response rating, Wheat [12, 17]: 40; Plant response rating, Wheat [12, 18]: 60; Plant response rating, Kochia [13, 17]: 80; Plant response rating, Kochia [13, 18]: 80; Plant response rating, Blackgrass [14, 17]: 40; Plant response rating, Blackgrass [14, 18]: 70; Plant response rating, Foxtail, Giant [15, 17]: 90; Plant response rating, Foxtail, Giant [15, 18]: 90; Plant response rating, Barnyardgrass [16, 17]: 90; Plant response rating, Barnyardgrass [16, 18]: 90
